# According to publication PMC6886544:
# Where “and” joins values, the source holds several entries; their conditions need not be identical. Identical values can stand only once. Like-named read-outs stand apart in the source and are kept apart here.
# What was measured:
# A549 cells (KRAS mutant) = experiment: CellTiter-Glo viability assay, A549; conditions: Homo sapiens, A549, 96 h, read-out: KRAS CTG EC50 A549
# [1] = Microsomal stability (phase I), mouse; type: in vitro ADME; conditions: mouse liver microsomes, up to 60 minutes, 37 °C
# Method: (§1) Microsomal stability (phase I) assay.
# (§2) Metabolic stability under oxidative conditions was measured in liver microsomes from different
# (§3) time up to 50 minutes (HLM) or 60 minutes (MLM) at 37 °C. Based on the compound half-life t1/2,
# (§4) the in vitro intrinsic clearance CLint was calculated. […]
# [2] = test system: A431 cells (EGFR wild type); experiment: CellTiter-Glo viability assay, A431; conditions: Homo sapiens, A-431, 96 h, read-out: EGFR CTG EC50 A431, A431, 96 hours, CellTiter-Glo
# EGFR-L858R = EGFR-L858R (Homo sapiens, UniProt P00533, L858R); experiment: HTRF KinEASE-TK activity-based assay, EGFR-L858R
# [3] = test system: H1975 cells (EGFR-L858R/T790M); experiment: CellTiter-Glo viability assay, H1975
# [4] = test system: HCC827 cells (EGFR-delE746_A750); experiment: CellTiter-Glo viability assay, HCC827; type: cell-based; conditions: Homo sapiens; HCC827, 96 hours, CellTiter-Glo; read-out: EGFR CTG EC50 HCC827;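 further: luminescence from ATP content as a measure of metabolically active cells, in RPMI with 10% FBS, compound added as serial dilutions after 24 h of preculture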
# EGFR-L858R/T790M = EGFR-L858R/T790M (Homo sapiens, UniProt P00533, L858R/T790M); experiment: HTRF KinEASE-TK activity-based assay, EGFR-L858R/T790M; conditions: EGFR HTRF IC50 L858R/T790M, ATP at Km (4 µM), 30 min preincubation; mean ± SD of three independent measurements in duplicates
# H358 cells (KRAS mutant) = experiment: CellTiter-Glo viability assay, H358; type: cell-based; conditions: Homo sapiens, NCI-H358; H358, 96 hours, CellTiter-Glo; read-out: KRAS CTG EC50 H358;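 further: viable cell number estimated from ATP-dependent luminescence following exposure to serially diluted inhibitor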
# EGFR-wt = EGFR-wt (Homo sapiens, UniProt P00533); experiment: HTRF KinEASE-TK activity-based assay, EGFR-wt; conditions: EGFR HTRF IC50 wt, ATP at Km (9.5 µM), 30 min preincubation; mean ± SD of three independent measurements in duplicates
# [5] = Microsomal stability (phase I), human; type: in vitro ADME; conditions: human liver microsomes, up to 50 minutes, 37 °C
# Method: as §1, §2, §3, §4
# [6] = Plasma protein binding, mouse; type: in vitro ADME; conditions: equilibrium dialysis, 37 °C
# Method: (§5) Assessment of plasma protein binding was measured by equilibrium dialysis by incubating plasma
# (§6) based determination of final compound concentrations. […]
# Plasma stability, human = type: in vitro ADME; conditions: 5 µM, 1 h, 37 °C
# Caco-2 assay = type: in vitro ADME; conditions: human, Caco-2, 5 μM, pH 7.4, 2 hours
# Method: For Caco-2 cell assay, a 10 mM DMSO stock of the compound was diluted to a final concentration of 5 μM in HBSS buffer pH 7.4 and incubated for 2 hours at 37 °C and 5% CO2 on a monolayer of Caco-2 cells (ATCC) that had been grown on a transwell membrane (Millipore, Schwalbach, Germany) for 21 days. The compound concentration was measured in the receiver as well as the donor well. Apparent permeability (Papp) from either the apical to basolateral direction or vice versa […]
# is the donor drug concentration at t = 0, and dQ/dt is the amount of drug transported within the given time period of 2 hours. […]
# [7] = Plasma protein binding, human; type: in vitro ADME; conditions: equilibrium dialysis, 37 °C
# Method: as §5, §6
# Plasma stability, mouse = type: in vitro ADME; conditions: 5 µM, 1 h, 37 °C
# [8] = Homo sapiens, NCI-H1975, 96 h, read-out: EGFR CTG EC50 H1975, H1975, 96 hours, CellTiter-Glo
# Sequence of EGFR-wt (P00533 25-1210): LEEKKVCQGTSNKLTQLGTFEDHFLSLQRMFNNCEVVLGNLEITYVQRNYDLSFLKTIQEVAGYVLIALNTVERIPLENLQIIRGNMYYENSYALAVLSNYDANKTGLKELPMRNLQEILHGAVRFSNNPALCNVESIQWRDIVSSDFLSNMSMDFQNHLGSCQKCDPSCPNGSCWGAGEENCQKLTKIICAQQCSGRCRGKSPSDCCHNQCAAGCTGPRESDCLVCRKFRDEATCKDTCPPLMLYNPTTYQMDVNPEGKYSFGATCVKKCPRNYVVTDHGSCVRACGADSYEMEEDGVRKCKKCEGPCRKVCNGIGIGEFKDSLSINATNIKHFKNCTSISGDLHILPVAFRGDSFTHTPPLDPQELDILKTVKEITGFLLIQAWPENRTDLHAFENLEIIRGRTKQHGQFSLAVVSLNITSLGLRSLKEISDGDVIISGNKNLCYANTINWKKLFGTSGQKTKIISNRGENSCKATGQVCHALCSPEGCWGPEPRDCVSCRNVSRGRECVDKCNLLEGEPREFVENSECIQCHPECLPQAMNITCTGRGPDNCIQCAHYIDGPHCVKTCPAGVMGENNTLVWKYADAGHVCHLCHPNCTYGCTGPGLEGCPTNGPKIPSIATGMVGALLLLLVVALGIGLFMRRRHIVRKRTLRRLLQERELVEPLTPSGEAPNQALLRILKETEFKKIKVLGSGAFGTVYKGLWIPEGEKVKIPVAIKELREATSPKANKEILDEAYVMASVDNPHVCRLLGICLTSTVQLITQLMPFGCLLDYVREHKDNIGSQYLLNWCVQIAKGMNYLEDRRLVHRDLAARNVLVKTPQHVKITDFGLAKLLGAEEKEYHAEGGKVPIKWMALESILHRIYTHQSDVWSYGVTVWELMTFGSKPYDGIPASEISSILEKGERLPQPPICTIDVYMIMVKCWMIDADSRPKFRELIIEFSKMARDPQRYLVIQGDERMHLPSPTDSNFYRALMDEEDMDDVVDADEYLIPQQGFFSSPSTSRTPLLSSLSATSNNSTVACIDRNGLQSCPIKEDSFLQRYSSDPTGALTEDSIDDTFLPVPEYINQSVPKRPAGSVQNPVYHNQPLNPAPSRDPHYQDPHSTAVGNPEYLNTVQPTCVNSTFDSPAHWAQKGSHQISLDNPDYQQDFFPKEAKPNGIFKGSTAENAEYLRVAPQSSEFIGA
# Sequence of EGFR-L858R/T790M (P00533 25-1210 T790M/L858R): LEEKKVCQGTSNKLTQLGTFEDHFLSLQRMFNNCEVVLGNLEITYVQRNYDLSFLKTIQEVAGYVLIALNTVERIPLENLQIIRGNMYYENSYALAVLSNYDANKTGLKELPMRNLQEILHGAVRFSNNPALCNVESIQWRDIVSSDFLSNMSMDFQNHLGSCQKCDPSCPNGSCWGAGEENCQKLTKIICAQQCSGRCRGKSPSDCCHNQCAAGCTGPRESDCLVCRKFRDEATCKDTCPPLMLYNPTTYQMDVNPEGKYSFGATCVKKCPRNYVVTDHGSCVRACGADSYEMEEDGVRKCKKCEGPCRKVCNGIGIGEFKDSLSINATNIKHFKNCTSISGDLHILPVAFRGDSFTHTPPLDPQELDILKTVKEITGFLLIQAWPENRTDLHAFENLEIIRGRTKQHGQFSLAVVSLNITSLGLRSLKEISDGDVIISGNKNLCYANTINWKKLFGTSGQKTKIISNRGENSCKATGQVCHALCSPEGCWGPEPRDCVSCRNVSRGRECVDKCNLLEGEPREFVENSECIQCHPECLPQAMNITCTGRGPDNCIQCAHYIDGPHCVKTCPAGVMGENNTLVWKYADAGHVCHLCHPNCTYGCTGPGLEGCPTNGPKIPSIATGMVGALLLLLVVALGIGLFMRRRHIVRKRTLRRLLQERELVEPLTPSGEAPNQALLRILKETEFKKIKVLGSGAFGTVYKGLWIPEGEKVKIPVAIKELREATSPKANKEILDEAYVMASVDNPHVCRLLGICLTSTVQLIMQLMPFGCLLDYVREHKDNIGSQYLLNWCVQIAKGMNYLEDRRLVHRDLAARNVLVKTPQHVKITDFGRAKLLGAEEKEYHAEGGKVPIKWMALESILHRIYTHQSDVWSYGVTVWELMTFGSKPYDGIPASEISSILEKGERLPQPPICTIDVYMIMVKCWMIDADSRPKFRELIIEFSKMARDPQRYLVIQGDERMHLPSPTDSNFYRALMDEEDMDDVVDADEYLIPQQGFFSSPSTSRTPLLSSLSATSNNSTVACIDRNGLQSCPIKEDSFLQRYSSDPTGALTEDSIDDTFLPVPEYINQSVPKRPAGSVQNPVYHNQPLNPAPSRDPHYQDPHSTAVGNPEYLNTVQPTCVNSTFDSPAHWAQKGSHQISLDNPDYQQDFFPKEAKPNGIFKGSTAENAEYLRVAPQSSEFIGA
# Sequence of EGFR-L858R (P00533 25-1210 L858R): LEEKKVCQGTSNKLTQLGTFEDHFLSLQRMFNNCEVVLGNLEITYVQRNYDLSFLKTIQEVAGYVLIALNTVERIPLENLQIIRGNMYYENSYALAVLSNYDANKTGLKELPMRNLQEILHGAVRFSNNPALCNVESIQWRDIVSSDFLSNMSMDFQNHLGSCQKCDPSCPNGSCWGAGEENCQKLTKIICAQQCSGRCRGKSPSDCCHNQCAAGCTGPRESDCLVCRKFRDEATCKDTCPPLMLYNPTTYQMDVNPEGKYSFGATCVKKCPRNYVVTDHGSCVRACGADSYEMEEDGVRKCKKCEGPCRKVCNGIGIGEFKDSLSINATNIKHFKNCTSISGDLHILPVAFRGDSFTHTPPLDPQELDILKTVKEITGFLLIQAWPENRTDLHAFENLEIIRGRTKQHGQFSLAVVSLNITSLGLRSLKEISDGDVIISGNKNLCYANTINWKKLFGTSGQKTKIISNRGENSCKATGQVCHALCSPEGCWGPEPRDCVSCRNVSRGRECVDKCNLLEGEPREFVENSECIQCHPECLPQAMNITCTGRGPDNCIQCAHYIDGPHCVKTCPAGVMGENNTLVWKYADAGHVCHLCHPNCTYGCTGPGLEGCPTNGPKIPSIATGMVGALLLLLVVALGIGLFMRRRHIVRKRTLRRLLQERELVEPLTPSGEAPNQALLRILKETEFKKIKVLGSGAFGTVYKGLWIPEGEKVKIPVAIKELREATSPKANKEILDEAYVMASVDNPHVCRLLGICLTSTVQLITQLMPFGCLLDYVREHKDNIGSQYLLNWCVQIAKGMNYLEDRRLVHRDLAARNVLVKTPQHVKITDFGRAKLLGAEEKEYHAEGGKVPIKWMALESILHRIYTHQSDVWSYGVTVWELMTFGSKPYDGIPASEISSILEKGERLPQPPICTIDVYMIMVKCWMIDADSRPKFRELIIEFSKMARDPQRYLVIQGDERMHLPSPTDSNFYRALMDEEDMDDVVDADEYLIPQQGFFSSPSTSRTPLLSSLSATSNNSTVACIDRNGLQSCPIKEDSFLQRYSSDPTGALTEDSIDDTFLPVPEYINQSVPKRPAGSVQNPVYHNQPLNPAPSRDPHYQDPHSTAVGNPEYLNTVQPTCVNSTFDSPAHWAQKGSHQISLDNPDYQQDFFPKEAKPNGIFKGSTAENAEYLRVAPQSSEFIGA
SMILES,EC50 (A549 cells (KRAS mutant)) [µM],microsomal CLint at 3 µM [1] [µL/min/mg],EC50 [2] [nM],IC50 (EGFR-L858R) [nM],"EC50 [3, 8] [nM]",EC50 [4] [nM],IC50 (EGFR-L858R/T790M),EC50 (H358 cells (KRAS mutant)) [µM],IC50 (EGFR-wt) [nM],"EC50 ([3]; Homo sapiens, NCI-H1975, read-out: EC50 / potency in H1975 cells, H1975, rounded value in running text) [nM]",microsomal CLint at 3 µM [5] [µL/min/mg],"fraction unbound at 6 h, 5 µM [6]","Plasma stability (Plasma stability, human) [%remain]","Papp A→B at 2 h, 5 μM (Caco-2 assay; apical to basolateral, read-out: Caco-2: Papp AB) [×10⁻⁶ cm/s]","Papp B→A at 2 h, 5 μM (Caco-2 assay; basolateral to apical, read-out: Caco-2: Papp BA) [×10⁻⁶ cm/s]","fraction unbound at 6 h, 5 µM [7]","Plasma stability (Plasma stability, mouse) [%remain]","EC50 ([3]; read-out: EGFR CTG EC50 H1975, H1975, 96 hours, CellTiter-Glo) [nM]"
C=CC(=O)Nc1cccc(-c2c(-c3ccc(C)cc3)[nH]c3ncnc(OC)c23)c1 [Compound 10a],10.2 ± 0.504,118,9860 ± 4250,93 ± 54,2040 ± 88,151 ± 10,< 200 nM and 175 nM,14.2 ± 0.678,200 ± 148,~2000,,,,,,,,
C=CC(=O)Nc1cccc(-c2c(-c3ccc(N4CCN(C)CC4)cc3)[nH]c3ncn(C4CCCC4)c(=O)c23)c1 [Compound 29i],2.13 ± 0.99,84,502 ± 166,< 0.1,263 ± 46,< 14,> 1 nM and 1.2 nM,1.94 ± 0.045,0.1,,,,,,,,,
C=CC(=O)Nc1cccc(-c2c(-c3ccc(N4CCN(C)CC4)cc3)[nH]c3ncn(CC)c(=O)c23)c1 [Compound 29b],4.3 ± 1.25,4,739 ± 287,0.2 ± 0.1,< 200,15 ± 1,0.5 nM,3.47 ± 2.01,0.4 ± 0.2,,,,,,,,,144 ± 41
COc1ncnc2[nH]c(-c3ccc(C)cc3)c(-c3cccc(NC(=O)C=CCN(C)C)c3)c12 [Compound 10b],7.05 ± 3.23,26,2430 ± 991,34 ± 11,980 ± 136,282 ± 29,26 ± 8 nM,10.7 ± 3.52,60 ± 18,,,,,,,,,
C=CC(=O)Nc1cccc(-c2c(-c3ccc(N4CCN(C)CC4)cc3)[nH]c3ncn(C4CCCCC4)c(=O)c23)c1 [Compound 29j],6.05 ± 4.6,30,1120 ± 656,0.2 ± 0.1,77 ± 15,< 14,0.4 ± 0.1 nM,6.27 ± 1.27,0.4 ± 0.1,,,,,,,,,

# Next, values leading:
EC50 (A549 cells (KRAS mutant)) [µM],microsomal CLint at 3 µM [1] [µL/min/mg],EC50 [2] [nM],IC50 (EGFR-L858R) [nM],"EC50 [3, 8] [nM]",EC50 [4] [nM],IC50 (EGFR-L858R/T790M),EC50 (H358 cells (KRAS mutant)) [µM],IC50 (EGFR-wt) [nM],"EC50 ([3]; Homo sapiens, NCI-H1975, read-out: EC50 / potency in H1975 cells, H1975, rounded value in running text) [nM]",microsomal CLint at 3 µM [5] [µL/min/mg],"fraction unbound at 6 h, 5 µM [6]","Plasma stability (Plasma stability, human) [%remain]","Papp A→B at 2 h, 5 μM (Caco-2 assay; apical to basolateral, read-out: Caco-2: Papp AB) [×10⁻⁶ cm/s]","Papp B→A at 2 h, 5 μM (Caco-2 assay; basolateral to apical, read-out: Caco-2: Papp BA) [×10⁻⁶ cm/s]","fraction unbound at 6 h, 5 µM [7]","Plasma stability (Plasma stability, mouse) [%remain]","EC50 ([3]; read-out: EGFR CTG EC50 H1975, H1975, 96 hours, CellTiter-Glo) [nM]",SMILES
1.8 ± 0.131,46,334 ± 50,< 0.1,38 ± 19,< 14,0.1 nM,2.7 ± 0.758,0.1,,,,,,,,,,C=CC(=O)Nc1cccc(-c2c(-c3ccc(N4CCN(C)CC4)cc3)[nH]c3ncnc(OC(C)C)c23)c1 [Compound 19g]
4 ± 0.545,66,2140 ± 439,,97 ± 37,20 ± 6,,4.39 ± 0.512,,,11,0.019,86,4.9,11.7,0.008,78,,"C=CC(=O)Nc1cccc(Oc2nc(Nc3ccc(N4CCN(C)CC4)cc3OC)ncc2Cl)c1 [WZ4002, reference compound]"
